As usually defined, the IC50 is the concentration needed to halve the response being measured.

Where a name gives a salt, the structure may show the parent alone.

The subject of the first assay is NCIH929.1 cells. Description: Cell viability assay for Table 2 (CellTiter-Glo 2.0, ATP quantification, 96 hr). Type of assay: cell-based. The conditions noted are these: 96 h. The text has this:
Cell Viability Assay for Table 2
CellTiter-Glo® 2.0 Assay was purchased from Promega (Madison, Wis., USA). NCIH929.1 cell line was purchased from ATCC (Manassas, Va., USA). Cell culture flasks and 384-well microplates were acquired from VWR (Radnor, Pa., USA).
In general terms: Cellular ATP, detected with luciferase, serves as a proxy for viable cell number.
`O=C1CCC(N2C(=O)c3cccc4cccc2c34)C(=O)N1` (stereo not shown) [Compound 139, 3-(2-oxobenzo[cd]indol-1(2H)-yl)piperidine-2,6-dione] came in with an IC50 of less than 100 nM.

Still in this assay, the particulars now being: 96 h, NCIH929.1 cell viability, 96 hr, top concentration 1 μM, 14 points half log titration; read-out: IC50.
As for `CC1(C(=O)N2CCC(C)(n3cc(Cc4ccc5c6c(cccc46)C(=O)N5C4CCC(=O)NC4=O)c(Cl)n3)CC2)CCC1` (stereo not shown) [Compound 133], the IC50 was less than 1 nM.

In the case of `O=C1CCC(N2C(=O)c3cccc4c(Cc5ccc(C(=O)N6CCN(c7ccccc7F)CC6)cc5)ccc2c34)C(=O)N1` (stereo not shown) [Compound 134, 3-[6-[[4-[4-(2-fluorophenyl)piperazine-1-carbonyl]phenyl]methyl]-2-oxo-benzo[cd]indol-1-yl]piperidine-2,6-dione], the IC50 was less than 1 nM.

Turning to `O=C1CCC(N2C(=O)c3cccc4c(Cc5ccc(CN6CCN(c7ccccc7F)CC67CC7)cc5)ccc2c34)C(=O)N1` (stereo not shown) [Compound 135, 3-[6-[[4-[[7-(2-fluorophenyl)-4,7-diazaspiro[2.5]octan-4-yl]methyl]phenyl]methyl]-2-oxo-benzo[cd]indol-1-yl]piperidine-2,6-dione], the concentration for half-maximal inhibition (IC50) is less than 1 nM.

With `C#CCNc1ccc2c3c(cccc13)C(=O)N2C1CCC(=O)NC1=O` (stereo not shown) [Compound 136, 3-[2-oxo-6-(prop-2-ynylamino)benzo[cd]indol-1-yl]piperidine-2,6-dione], the IC50 is greater than 999 nM.

On to `C#CCOc1ccc2c3c(cccc13)C(=O)N2C1CCC(=O)NC1=O` (stereo not shown) [Compound 137, 3-(2-oxo-6-prop-2-ynoxy-benzo[cd]indol-1-yl)piperidine-2,6-dione], for which the IC50 was less than 100 nM.

Consider `CC(C)(C)OC(=O)N1CCC(n2cc(C(=O)c3ccc4c5c(cccc35)C(=O)N4C3CCC(=O)NC3=O)cn2)CC1` (stereo not shown) [Compound 143, tert-butyl 4-(4-(1-(2,6-dioxopiperidin-3-yl)-2-oxo-1,2-dihydrobenzo[cd]indole-6-carbonyl)-1H-pyrazol-1-yl)piperidine-1-carboxylate], for which the concentration for half-maximal inhibition (IC50) was less than 999 nM.

Turning to `Nc1ccc2c3c(cccc13)C(=O)N2C1CCC(=O)NC1=O` (stereo not shown) [Compound 144, 3-(6-Amino-2-oxo-2H-benzo[cd]indol-1-yl)-piperidine-2,6-dione hydrochloride], the IC50 was less than 999 nM.

For the compound `N#Cc1ccc2c3c(cccc13)C(=O)N2C1CCC(=O)NC1=O` (stereo not shown) [Compound 145, 1-(2,6-dioxopiperidin-3-yl)-2-oxo-1,2-dihydrobenzo[cd]indole-6-carbonitrile], the IC50 was greater than 999 nM.

As to `O=C1CCC(N2C(=O)c3cccc4c(Cc5ccc(CN6C7COCC6C7)cc5)ccc2c34)C(=O)N1` (stereo not shown) [Compound 146, 3-[6-[[4-(3-oxa-6-azabicyclo[3.1.1]heptan-6-ylmethyl)phenyl]methyl]-2-oxo-benzo[cd]indol-1-yl]piperidine-2,6-dione], the IC50 was less than 1 nM.

With `CC1(C(=O)N2CCC(Cc3ccc(Cc4ccc5c6c(cccc46)C(=O)N5C4CCC(=O)NC4=O)cc3)CC2)CCC1` (stereo not shown) [Compound 150, 3-(6-(4-((1-(1-methylcyclobutane-1-carbonyl)piperidin-4-yl)methyl)benzyl)-2-oxobenzo[cd]indol-1(2H)-yl)piperidine-2,6-dione], the IC50 is less than 1 nM.

In the case of `N#Cc1ccc(N2CCC(Cc3ccc(Cc4ccc5c6c(cccc46)C(=O)N5C4CCC(=O)NC4=O)cc3)CC2)c(F)c1` (stereo not shown) [Compound 151, 4-(4-(4-((1-(2,6-dioxopiperidin-3-yl)-2-oxo-1,2-dihydrobenzo[cd]indol-6-yl)methyl)benzyl)piperidin-1-yl)-3-fluorobenzonitrile], the half-inhibitory concentration (IC50) was less than 1 nM.

For the compound `O=C1CCC(N2C(=O)c3cccc4c(Cc5ccc(CC6CCN(Cc7ccccc7)CC6)cc5)ccc2c34)C(=O)N1` (stereo not shown) [Compound 152, 3-(6-(4-((1-benzylpiperidin-4-yl)methyl)benzyl)-2-oxobenzo[cd]indol-1(2H)-yl)piperidine-2,6-dione], the IC50 was less than 1 nM.

For the origin of these results see US20230082430A1 (C4 Therapeutics, Inc., priority 2019, published 2023).
